The subject of test [1] is Lipaphis erysimi. Kind of test: Insecticidal activity against Lipaphis erysimi (mustard aphids) assessed as insect mortality at 300 mg/mL. The format is functional. Conditions: in Brassica. More on the design: dose or concentration left out as unconfirmed.
Test [2] concerns Tetranychus cinnabarinus. Kind of test: Insecticidal activity against Tetranychus cinnabarinus (carmine spider mite) assessed as insect mortality at 300 mg/mL. More on the design: dose or concentration left out as unconfirmed. It counts as functional.
Test [3] deals with Acetylcholinesterase (Musca domestica, UniProt Q7YWJ9). Briefly: Inhibition of acetylcholinesterase in Musca domestica (house fly) brain by Ellman's method.
Chain of Acetylcholinesterase (Musca domestica, UniProt Q7YWJ9) (Q7YWJ9 whole entry): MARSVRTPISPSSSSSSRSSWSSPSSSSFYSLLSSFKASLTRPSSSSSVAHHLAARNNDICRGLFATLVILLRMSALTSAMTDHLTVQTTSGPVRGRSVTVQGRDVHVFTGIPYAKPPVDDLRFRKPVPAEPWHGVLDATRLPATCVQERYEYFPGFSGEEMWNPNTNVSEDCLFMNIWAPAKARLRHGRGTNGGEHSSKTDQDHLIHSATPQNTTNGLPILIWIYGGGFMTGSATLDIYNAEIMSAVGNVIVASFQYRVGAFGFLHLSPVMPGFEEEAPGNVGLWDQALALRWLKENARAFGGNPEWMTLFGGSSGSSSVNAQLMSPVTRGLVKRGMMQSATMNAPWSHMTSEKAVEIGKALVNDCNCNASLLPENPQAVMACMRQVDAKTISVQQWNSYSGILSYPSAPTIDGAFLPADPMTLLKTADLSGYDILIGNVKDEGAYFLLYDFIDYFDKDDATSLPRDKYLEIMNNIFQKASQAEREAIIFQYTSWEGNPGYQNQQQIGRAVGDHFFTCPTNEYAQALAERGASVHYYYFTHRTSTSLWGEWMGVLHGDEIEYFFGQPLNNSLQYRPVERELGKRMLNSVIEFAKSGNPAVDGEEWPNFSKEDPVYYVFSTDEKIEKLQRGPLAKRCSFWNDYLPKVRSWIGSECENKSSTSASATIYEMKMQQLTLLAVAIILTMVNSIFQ
Test [4] has as its target Acetylcholinesterase (Drosophila melanogaster, UniProt P07140). Kind of test: Inhibition of acetylcholinesterase in Drosophila melanogaster brain by Ellman's method.

Chain of Acetylcholinesterase (Drosophila melanogaster, UniProt P07140) (P07140 whole entry): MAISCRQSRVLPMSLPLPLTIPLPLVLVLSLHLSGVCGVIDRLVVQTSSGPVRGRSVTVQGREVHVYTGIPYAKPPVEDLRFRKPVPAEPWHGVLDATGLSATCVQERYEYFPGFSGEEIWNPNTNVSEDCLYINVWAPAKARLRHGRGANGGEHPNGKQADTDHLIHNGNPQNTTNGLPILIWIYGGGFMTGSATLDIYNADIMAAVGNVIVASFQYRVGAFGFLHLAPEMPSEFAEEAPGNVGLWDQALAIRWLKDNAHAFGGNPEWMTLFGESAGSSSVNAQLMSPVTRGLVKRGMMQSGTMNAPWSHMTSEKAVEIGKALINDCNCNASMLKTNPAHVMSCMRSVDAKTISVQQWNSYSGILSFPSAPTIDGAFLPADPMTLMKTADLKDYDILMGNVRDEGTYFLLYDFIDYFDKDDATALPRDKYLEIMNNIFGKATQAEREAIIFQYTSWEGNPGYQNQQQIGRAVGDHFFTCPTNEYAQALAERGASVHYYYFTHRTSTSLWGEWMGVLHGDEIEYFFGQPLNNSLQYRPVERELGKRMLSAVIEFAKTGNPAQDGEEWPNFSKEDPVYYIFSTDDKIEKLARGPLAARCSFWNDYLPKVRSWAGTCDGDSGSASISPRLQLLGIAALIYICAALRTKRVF

In general, mortality refers to the share of the test organisms that died. A word on the IC50: it is the concentration that gives 50% inhibition. For `CCOP(=O)(OCC)SCCCCCCCCN1C(=O)c2ccccc2C1=O`, the mortality was 62.5% in test [1] and 85% in test [2]. The IC50 is 13.8 µM in test [3] and 4.5 µM in test [4].

For `CCOP(=O)(OCC)SCCCCCCCCCN1C(=O)c2ccccc2C1=O`, the results for the mortality in test [1] and in test [2] were 88.3% and 77.6%, respectively. Also, the IC50 stood at 267 µM in test [3] and 37.5 µM in test [4].

With `CCOP(=O)(OCC)SCCCCCCCCCCN1C(=O)c2ccccc2C1=O`, the values for the mortality in test [1] and in test [2] were 92.8% and 92.2%, respectively. The IC50 in test [3] turned out to be 80.9 µM; in test [4] it was 113 µM.

For the molecule `CCOP(=O)(OCC)SCCCSP(=O)(OCC)OCC`, the mortality in test [1] was found to be 90.8%; in test [2] it was 98.4%. For the same molecule, the IC50 in test [3] worked out at 32.4 µM; in test [4] it was 1.64 µM.

Consider `CCOP(=O)(OCC)SCCCCSP(=O)(OCC)OCC`, for which the results for the mortality in test [1] and in test [2] were 89.4% and 82%, respectively. Besides, the IC50 in test [3] amounted to 107 µM; in test [4], 8.07 µM.

For the molecule `CCOP(=O)(OCC)SCCCCCSP(=O)(OCC)OCC`, the mortality in test [1] came to 42.6%; in test [2], 85.7%. The figures for the IC50 in test [3] and in test [4] were 4600 µM and 12.3 µM, respectively.

In the case of `CCOP(=O)(OCC)SCCCCCCSP(=O)(OCC)OCC`, the mortality turned out to be 95.4% in test [1] and 92.4% in test [2]. The results for the concentration for half-maximal inhibition (IC50) in test [3] and in test [4] were 8.9 µM and 0.87 µM, respectively.

Turning to `CCOP(=O)(OCC)SCCCCCCCSP(=O)(OCC)OCC`, the figures for the mortality in test [1] and in test [2] were 97.3% and 83.3%, respectively. The IC50 in test [3] is 2100 µM; in test [4] it was 10.2 µM.

As to `CCOP(=O)(OCC)SCCCCCCCCSP(=O)(OCC)OCC`, the mortality in test [1] was 97.5%; in test [2], 87.7%. Moreover, the IC50 in test [3] stood at 331 µM; in test [4], 4.84 µM.

`CCOP(=O)(OCC)SCCCCCCCCCSP(=O)(OCC)OCC`: the mortality in test [1] came to 100%; in test [2], 78.6%. For the same molecule, the IC50 stood at 197 µM in test [3] and 1.43 µM in test [4].

Turning to `CCOP(=O)(OCC)SCCCCCCCCCCSP(=O)(OCC)OCC`, the mortality in test [1] worked out at 96.6%; in test [2] it was 93.3%. Further, the IC50 in test [3] was 224 µM; in test [4], 1.76 µM.

`CCOP(=O)(OCC)SCCCN1C(=O)c2ccccc2C1=O`: the results for the mortality in test [1] and in test [2] were 97.8% and 92.9%, respectively. The figures for the IC50 in test [3] and in test [4] were 155 µM and 8.29 µM, respectively.

In the case of `CCOP(=O)(OCC)SCCCCN1C(=O)c2ccccc2C1=O`, the mortality in test [1] was determined as 97.7%; in test [2], 88.9%. For the same molecule, the IC50 in test [3] is 25.8 µM; in test [4], 9.92 µM.

With `CCOP(=O)(OCC)SCCCCCN1C(=O)c2ccccc2C1=O`, the values for the mortality in test [1] and in test [2] were 96.5% and 81.2%, respectively. In addition, the figures for the IC50 in test [3] and in test [4] were 114 µM and 12.3 µM, respectively.

As for `CCOP(=O)(OCC)SCCCCCCN1C(=O)c2ccccc2C1=O`, the mortality was 100% in test [1] and 87.3% in test [2]. The IC50 in test [3] turned out to be 9.42 µM; in test [4], 3.81 µM.

`CCOP(=O)(OCC)SCCCCCCCN1C(=O)c2ccccc2C1=O`: the mortality in test [1] is 88%; in test [2], 89.3%. For the same molecule, the IC50 in test [3] was 2.08 µM; in test [4], 1.84 µM.

`CCOP(=S)(OCC)Oc1nc(Cl)c(Cl)cc1Cl` [CHLORPYRIFOS]: the mortality in test [1] was 100%; in test [2] it was 71.1%. Also, the IC50 in test [3] was 9.51 µM; in test [4], 1.83 µM.

As to `CCOP(O)(=S)OCC` [O,O-DIETHYL S-HYDROGEN PHOSPHOROTHIOATE], the IC50 in test [3] is above 25000 µM; in test [4] it was above 40000 µM.

The values above are taken from ChEMBL document CHEMBL3046127, “Homo- and hetero-dimers of inactive organophosphorous group binding at dual sites of AChE” (Bioorg Med Chem Lett, 2011).
